The test system of experiment [1] is DDe (human estrogen receptor ligand binding domain) fused to Fluc2. To be noted: C2C12.
Experiment [2] has as its system DDd-L7Ae. Nature of the experiment: DDd-L7Ae OFF switch on replicon in myotubes differentiated from C2C12. Type of experiment: cell-based. Background: A replicon is a self-replicating genome or part of one, used to study replication in cells.
The subject of experiment [3] is DDd-L7Ae.

The record followed here is patent US11351271B2, “RNA-based logic circuits with RNA binding proteins, aptamers and small molecules” (priority 2014, dated 2022).

Turning to `CC/C(=C(\c1ccc(O)cc1)c1ccc(OCCN(C)C)cc1)c1ccccc1` [4-OHT, 4-hydroxytamoxifin], in experiment [1], the “Increase of DDe-Fluc2 expression compared to no small molecule” value stood at 6.4 fold.
On to `O=C1Nc2ccc3ncsc3c2/C1=C/c1cnc[nH]1` [C16], for which, in the experiment on DDd-L7Ae [2] (myotubes), the “Effect on expression and fold change of the DDd-L7Ae circuit” value was “increase expression and overall fold change”.
Turning to `COc1cc(Cc2cnc(N)nc2N)cc(OC)c1OC` [TMP, trimethoprim], the “Repression of reporter upon addition of TMP” value with DDd-L7Ae [3] came to 22.5 fold. For the same molecule, in the experiment with DDd-L7Ae [2] (mouse myotubes, optimized circuit with PKR inhibitors), the “Decrease in expression after addition of TMP” value amounted to 15 fold.
